What was measured:
[1] = test system: MDA-MB-435; test: NCI 60 cell line panel: MDA-MB-435; assay type: cell-based, human; settings: Melanoma, TP53 null/mutant
Source text: (§1) Details of the NCI 60 One Dose Screen are well known and available online.

[2] = test system: OVCAR-3; test: NCI 60 cell line panel: OVCAR-3; assay type: cell-based, human; settings: Ovarian cancer, TP53 null/mutant
Source text: as §1

[3] = test system: UACC-257; test: NCI 60 cell line panel: UACC-257; assay type: cell-based, human; settings: Melanoma, TP53 wild type
Source text: as §1

[4] = test system: PC-3; test: NCI 60 cell line panel: PC-3; assay type: cell-based, human; settings: Prostate cancer, TP53 null/mutant
Source text: as §1

[5] = test system: HT29; test: NCI 60 cell line panel: HT29; assay type: cell-based, human; settings: Colon cancer, TP53 null/mutant
Source text: as §1

[6] = target: T1, DNMT1 (Homo sapiens, UniProt P26358); test: Western blot for DNMT1, Kasumi-1 cells; assay type: cell-based; design: cytoplasmic and nuclear protein extracts from cells; endogenous in cells; host or cells: Kasumi-1; settings: 0.1 and 0.2 µM, 6 days after exposure
T1 sequence (P26358 whole entry): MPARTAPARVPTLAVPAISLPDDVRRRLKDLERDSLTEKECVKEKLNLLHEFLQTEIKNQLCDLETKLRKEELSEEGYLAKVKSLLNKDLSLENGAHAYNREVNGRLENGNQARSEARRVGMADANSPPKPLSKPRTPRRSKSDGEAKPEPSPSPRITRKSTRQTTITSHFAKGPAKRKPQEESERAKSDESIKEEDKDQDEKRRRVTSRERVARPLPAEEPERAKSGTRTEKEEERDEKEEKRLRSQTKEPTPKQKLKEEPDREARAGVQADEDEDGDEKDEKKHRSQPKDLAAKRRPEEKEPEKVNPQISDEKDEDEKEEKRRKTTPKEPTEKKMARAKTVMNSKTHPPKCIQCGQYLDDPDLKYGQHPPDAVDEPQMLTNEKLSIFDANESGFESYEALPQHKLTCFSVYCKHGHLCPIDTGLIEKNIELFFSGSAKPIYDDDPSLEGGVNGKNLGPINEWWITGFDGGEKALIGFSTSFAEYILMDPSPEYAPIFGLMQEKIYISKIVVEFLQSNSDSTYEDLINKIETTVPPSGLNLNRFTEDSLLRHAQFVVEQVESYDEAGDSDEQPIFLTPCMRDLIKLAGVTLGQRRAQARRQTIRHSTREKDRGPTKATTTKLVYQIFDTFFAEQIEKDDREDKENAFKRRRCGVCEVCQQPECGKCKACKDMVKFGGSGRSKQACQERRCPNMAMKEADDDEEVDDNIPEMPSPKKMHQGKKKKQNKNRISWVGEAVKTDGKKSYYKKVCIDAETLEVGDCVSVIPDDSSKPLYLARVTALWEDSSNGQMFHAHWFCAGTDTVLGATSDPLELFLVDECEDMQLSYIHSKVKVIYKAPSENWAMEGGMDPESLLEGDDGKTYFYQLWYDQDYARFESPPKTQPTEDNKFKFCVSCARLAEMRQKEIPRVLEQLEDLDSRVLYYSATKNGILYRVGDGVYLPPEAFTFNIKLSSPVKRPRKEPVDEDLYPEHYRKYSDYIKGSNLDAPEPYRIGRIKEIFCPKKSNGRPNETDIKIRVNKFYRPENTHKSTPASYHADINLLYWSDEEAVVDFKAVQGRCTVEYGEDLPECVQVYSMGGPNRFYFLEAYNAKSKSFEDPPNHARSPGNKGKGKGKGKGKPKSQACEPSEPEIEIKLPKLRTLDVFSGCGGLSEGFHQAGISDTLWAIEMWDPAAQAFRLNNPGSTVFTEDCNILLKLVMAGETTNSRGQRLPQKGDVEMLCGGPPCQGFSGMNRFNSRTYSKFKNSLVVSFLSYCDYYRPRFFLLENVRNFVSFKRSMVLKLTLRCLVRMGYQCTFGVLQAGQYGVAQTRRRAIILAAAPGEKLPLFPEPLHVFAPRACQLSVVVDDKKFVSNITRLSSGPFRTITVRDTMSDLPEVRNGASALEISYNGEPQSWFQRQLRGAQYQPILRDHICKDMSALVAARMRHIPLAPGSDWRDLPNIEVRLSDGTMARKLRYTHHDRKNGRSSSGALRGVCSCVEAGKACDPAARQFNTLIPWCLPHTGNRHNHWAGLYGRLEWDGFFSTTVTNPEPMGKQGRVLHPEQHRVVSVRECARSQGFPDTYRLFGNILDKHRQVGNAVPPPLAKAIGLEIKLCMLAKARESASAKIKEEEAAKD
Protocol: (§2) Cells were co-stained with Annexin-V and PI on day 2 and analyzed by flow cytometry.
(§3) Approximately 100 µg of cytoplasmic and nuclear protein extracts from cells, together with molecular weight markers, were subjected to SDS-PAGE on 4–12% gradient gels (Invitrogen, Carlsbad, CA, USA) followed by transfer to polyvinylidene fluoride membranes (Invitrogen). Blots were probed using antibodies for DNMT1 (Abcam ab16632).

[7] = test system: total DNMT; test: Total DNMT inhibition, colorimetric assay in HCT-116 cells; assay type: cell-based, human; settings: 10 µM, 24 h
Protocol: Total DNMT activity was measured in the colon cancer cell line HCT-116. The assay was performed using the EpiQuick^TM DNA Methyltransferase Activity/Inhibition Assay Kit (Epigentek, Brooklyn, NY, USA). […] Assays were performed three times in triplicate.

[8] = test system: ACHN; test: NCI 60 cell line panel: ACHN; assay type: cell-based, human; settings: Renal cancer, TP53 wild type
Source text: as §1

[9] = test system: MDA-MB-231; test: NCI 60 cell line panel: MDA-MB-231; assay type: cell-based, human; settings: Breast cancer, TP53 null/mutant
Source text: as §1

[10] = test system: HCT-116; test: NCI 60 cell line panel: HCT-116; assay type: cell-based, human; settings: Colon cancer, TP53 wild type
Source text: as §1

[11] = target: T1, DNMT1; test: Western blot for DNMT1, THP-1 cells; assay type: cell-based; design: cytoplasmic and nuclear protein extracts from cells; endogenous in cells; host or cells: THP-1; settings: 0.1 and 0.2 µM, 6 days after exposure
Protocol: as §2, §3

[12] = test system: KM12; test: NCI 60 cell line panel: KM12; assay type: cell-based, human; settings: Colon cancer, TP53 null/mutant
Source text: as §1

[13] = test system: CAKI-1; test: NCI 60 cell line panel: CAKI-1; assay type: cell-based, human; settings: Renal cancer, TP53 wild type
Source text: as §1

[14] = test system: SR; test: NCI 60 cell line panel: SR; assay type: cell-based, human; settings: Leukemia, TP53 wild type
Source text: as §1

[15] = test system: NCI-H226; test: NCI 60 cell line panel: NCI-H226; assay type: cell-based, human; settings: NSCL, TP53 null/mutant
Source text: as §1

[16] = test system: SK-MEL-2; test: NCI 60 cell line panel: SK-MEL-2; assay type: cell-based, human; settings: Melanoma, TP53 null/mutant
Source text: as §1

[17] = test system: SK-MEL-28; test: NCI 60 cell line panel: SK-MEL-28; assay type: cell-based, human; settings: Melanoma, TP53 null/mutant
Source text: as §1

[18] = test system: SK-MEL-5; test: NCI 60 cell line panel: SK-MEL-5; assay type: cell-based, human; settings: Melanoma, TP53 wild type
Source text: as §1

[19] = test system: BT-549; test: NCI 60 cell line panel: BT-549; assay type: cell-based, human; settings: Breast cancer, TP53 null/mutant
Source text: as §1

[20] = test system: K-562; test: NCI 60 cell line panel: K-562; assay type: cell-based, human; settings: Leukemia, TP53 null/mutant
Source text: as §1

[21] = test system: HCC-2998; test: NCI 60 cell line panel: HCC-2998; assay type: cell-based, human; settings: Colon cancer, TP53 null/mutant
Source text: as §1

[22] = test system: TP53 WT colon cancer cell line Ls174T; test: In vitro growth inhibition (CellTiter-Glo), Ls174T; assay type: cell-based; settings: Homo sapiens, 72 h exposure
Protocol: (§4) Further testing was performed in colon cancer cell lines.
(§5) Cells were grown in an appropriate medium for the cell line of interest; 96 well plates of each cell line were seeded with 5000 cells per well and left overnight. Drug exposed cells were incubated at 37 °C for 72 h. At the end of the 72 h exposure period, plates were removed for the CellTiter-Glo® assay. Luminescence was recorded on a Synergy 4.0. Assays were performed in triplicate.

[23] = test system: UO-31; test: NCI 60 cell line panel: UO-31; assay type: cell-based, human; settings: Renal cancer, TP53 wild type
Source text: as §1

[24] = test system: SF-268; test: NCI 60 cell line panel: SF-268; assay type: cell-based, human; settings: CNS cancer, TP53 null/mutant
Source text: as §1

[25] = test system: CCRF-CEM; test: NCI 60 cell line panel: CCRF-CEM; assay type: cell-based, human; settings: Leukemia, TP53 null/mutant
Source text: as §1

[26] = test system: NCI-H460; test: NCI 60 cell line panel: NCI-H460; assay type: cell-based, human; settings: NSCL, TP53 wild type
Source text: as §1

[27] = test system: OVCAR-5; test: NCI 60 cell line panel: OVCAR-5; assay type: cell-based, human; settings: Ovarian cancer, TP53 wild type
Source text: as §1

[28] = test system: SF-539; test: NCI 60 cell line panel: SF-539; assay type: cell-based, human; settings: CNS cancer, TP53 null/mutant
Source text: as §1

[29] = test system: THP-1 cells; test: Morphology (Giemsa stain) of THP-1 cells; assay type: cell-based, human; settings: 6 days following exposure
[30] = test system: SW-620; test: NCI 60 cell line panel: SW-620; assay type: cell-based, human; settings: Colon cancer, TP53 null/mutant
Source text: as §1

[31] = test system: NCI-H522; test: NCI 60 cell line panel: NCI-H522; assay type: cell-based, human; settings: NSCL, TP53 null/mutant
Source text: as §1

[32] = test system: 786-0; test: NCI 60 cell line panel: 786-0; assay type: cell-based, human; settings: Renal cancer, TP53 null/mutant
Source text: as §1

[33] = test system: TP53 WT colon cancer cell line LoVo; test: In vitro growth inhibition (CellTiter-Glo), LoVo; assay type: cell-based; settings: Homo sapiens, 72 h exposure
Protocol: as §4, §5

[34] = nude mice; same schedule
Protocol: Three mice were placed in a dose group on the first day of treatment (Day 1). […] Animals were observed daily for mortality and moribundity. Body weights were measured daily starting on day 1.

[35] = test system: EKVX; test: NCI 60 cell line panel: EKVX; assay type: cell-based, human; settings: NSCL, TP53 null/mutant
Source text: as §1

Compound: Nc1ncn([C@@H]2O[C@H](CO)[C@@H](O)C2(F)F)c(=O)n1 [NUC013, 5-aza-2′,2′-difluroro deoxycytidine]
- Growth (%) at 10 µM [1]: 53.04%
- Growth (%) at 10 µM [2]: 70.56%
- Growth (%) at 10 µM [3]: 77.54%
- Growth (%) at 10 µM [4]: 63.57%
- Growth (%) at 10 µM [5]: 70.09%
- DNMT1 inhibition by western blot [6]: weaker than decitabine
- inhibition of total DNMT [7]: 48.5%
- Growth (%) at 10 µM [8]: 7.28%
- Growth (%) at 10 µM [9]: 79.98%
- Growth (%) at 10 µM [10]: 29.84%
- DNMT1 inhibition by western blot [11]: comparable to decitabine
- Growth (%) at 10 µM [12]: 61.18%
- Growth (%) at 10 µM [13]: 27.86%
- Growth (%) at 10 µM [14]: 14.99%
- Growth (%) at 10 µM [15]: 52.34%
- Growth (%) at 10 µM [16]: 104.47%
- Growth (%) at 10 µM [17]: 78.46%
- Growth (%) at 10 µM [18]: 70.84%
- Growth (%) at 10 µM [19]: 53.63%
- Growth (%) at 10 µM [20]: 65.66%
- Growth (%) at 10 µM [21]: 60.44%
- GI50 [22]: 1300 nM
- Growth (%) at 10 µM [23]: 39.00%
- Growth (%) at 10 µM [24]: 65.39%
- Growth (%) at 10 µM [25]: 23.67%
- Growth (%) at 10 µM [26]: 9.34%
- Growth (%) at 10 µM [27]: 86.95%
- Growth (%) at 10 µM [28]: 22.25%
- morphologic changes [29]: morphologic changes suggestive of cell differentiation
- Growth (%) at 10 µM [30]: 51.21%
- Growth (%) at 10 µM [31]: 86.91%
- Growth (%) at 10 µM [32]: 26.29%
- GI50 [33]: 3000 nM
- difference in MTD versus decitabine [34]: greater than 24 fold
- Growth (%) at 10 µM [35]: 86.06%

From publication PMC5620609 (Pharmaceuticals, 2017)
